Results taken from patent publication US10668056B2, “Pharmaceutical composition comprising indole derivatives, process for preparation and use thereof” (VIVOLUX AB, priority 2015, dated 2020).
Read-outs that look alike come from different tables or passages of the source.

Columns and labels:
[1] = tested on: six human tumor cell lines; experiment: FMCA cytotoxicity, six human tumor cell lines (overall); format: cell-based; settings: Table 6 and FIG. 4
Description: (§1) The inventors also set out to characterize activity of the compounds A, B and C in cell lines representing cancer of different origin. The specific assays used and the conclusions from the mechanistic evaluation have previously been described in detail (Zhang et al. 2014). Compounds A, B and C (See FIG. 4) were evaluated for cytotoxicity expressed as survival index (SI) in six human tumor cell lines using the cell based fluorometric micro culture cytotoxicity assay (FMCA) as previously described in detail (Lindhagen et al, 2008). The method is based on measurement of fluorescent fluorescein, generated from hydrolysis of FDA by viable cells with intact plasma membrane. The fluorescence is proportional to the number of intact viable cells.
(§2) The cell lines were cultivated in the respective cell medium recommended by the provider. The medium was supplemented with 10% heat-inactivated fetal bovine serum, 2 mmol/L L-glutamine, 100 μg/mL streptomycin and 100 U/mL penicillin (all from Sigma-Aldrich). The cell line was cultured at 37° C. in a humidified atmosphere containing 5% CO2.
(§3) FMCA analysis in brief, 2500 cells per well were seeded into 384-well microplates and incubated over night before treatment with compounds. Compounds were added using acoustic liquid transfer (Echo 550, LabCyte). The plates were incubated at 37° C. for 72 h, and then washed and FDA was added to the wells followed by 50 min of incubation at 37° C. The fluorescence, which is proportional to the number of living cells in each well, was measured at 485/520 nm in a Fluoroskan instrument (Labsystems, GMI, Ramsey, Minn.). Cell survival is presented as Survival Index (SI), defined as the fluorescence value in the compound-treated wells analysed as percentage of the value in the control wells, with blank values subtracted. Quality criteria included a signal/blank ratio >10 and a coefficient of variation (CV) in control and blank wells <30%. Graph Pad Prism (San Diego, Calif., USA). All experiments were performed twice, and each concentration was evaluated in quadruplicates in each experiment. […]

[2] = tested on: RKO (Colon carcinoma); experiment: FMCA cytotoxicity, RKO; format: cell-based, human; settings: 72 h
Description: as §1, §2, §3

[3] = tested on: HCT116 (Colon carcinoma); experiment: FMCA cytotoxicity, HCT116; format: cell-based, human; settings: 72 h
Description: as §1, §2, §3

[4] = tested on: THP-1 (Acute Monocytic Leukemia); experiment: FMCA cytotoxicity, THP-1; format: cell-based, human; settings: 72 h
Description: as §1, §2, §3

[5] = tested on: primary human tumor cell cultures, Gastric; settings: 9 patients analyzed, 72 h
Description: (§4) Cells were seeded in the drug-prepared 384-well plates using the pipetting robot Precision 2000 (Bio-Tek Instruments Inc., Winooski, Vt.).

[6] = tested on: primary human tumor cell cultures, Mesothelioma; settings: 7 patients analyzed, 72 h
Description: as §4

[7] = tested on: primary human tumor cell cultures, Small bowel; settings: 1 patient analyzed, 72 h
Description: as §4

[8] = tested on: primary human tumor cell cultures, Renal; settings: 13 patients analyzed, 72 h
Description: as §4

[9] = tested on: primary human tumor cell cultures, PMP (Pseudomyxoma Peritonei); settings: 50 patients analyzed, 72 h
Description: as §4

[10] = tested on: primary human tumor cell cultures, Pancreas; settings: 1 patient analyzed, 72 h
Description: as §4

[11] = tested on: primary human tumor cell cultures, Colorectal cancer; settings: 25 patients analyzed, 72 h
Description: as §4

[12] = tested on: primary human tumor cell cultures, Appendix; settings: 4 patients analyzed, 72 h
Description: as §4

[13] = tested on: primary human tumor cell cultures, Ovarian; settings: 30 patients analyzed, 72 h
Description: as §4

[14] = tested on: various cell lines (CCRF-CEM, RPMI-8226, A2780, FaDu, HT29, MCF7, HL-60) and primary human tumor cell cultures; settings: FIG. 3
Description: as §4

[15] = tested on: CCRF-CEM (Acute lymphoblastic leukemia); experiment: FMCA cytotoxicity, CCRF-CEM; format: cell-based, human; settings: 72 h
Description: as §1, §2, §3

[16] = tested on: HepG2 (Hepatocellular Carcinoma); experiment: FMCA cytotoxicity, HepG2; format: cell-based, human; settings: 72 h
Description: as §1, §2, §3

[17] = tested on: HeLa (Cervix Adenocarcinoma); experiment: FMCA cytotoxicity, HeLa; format: cell-based, human; settings: 72 h
Description: as §1, §2, §3

[18] = same sample re-analysed after 2 days

Compound: C/C(=N\Nc1nnc2c(n1)[nH]c1c(C)cccc12)c1ccccn1 [Compound A, 2-[(1E,Z)-1-(2-{6-methyl-5H-[1,2,4]triazino[5,6-b]indole-3-yl}hydrazine-1-ylidene)ethyl]-pyridine]
- Z-isomer content [18]: ~2%
- hydrolysis detected [18]: ~1%
- Z-isomer content (sample preparation in 0.1% TFA/H2O, first analysis): ~7%
- activity on cancer cell lines [1]: strong activity
- IC50 [2]: < 250 nM
- IC50 [3]: ~1000 nM
- IC50 [4]: < 250 nM
- IC50 [5]: 6.9 µM
- IC50 [6]: 12 µM
- IC50 [7]: 5.4 µM
- IC50 [8]: 164 µM
- IC50 [9]: 9.4 µM
- IC50 [10]: 6 µM
- IC50 [11]: 11 µM
- IC50 [12]: 21 µM
- IC50 [13]: 5.7 µM
- anti-cancer activity [14]: broad anti-cancer activity
- IC50 [15]: < 250 nM
- IC50 [16]: < 250 nM
- IC50 [17]: ~20 µM
